pKi: −log10 of the molar value.
Columns and labels:
[1] = Drug accumulation in human MCF7 cells assessed as increase in mean fluorescence intensity pretreated with (+)-pentazocine for 60 mins followed by compound addition incubated for 45 mins by flow cytometric analysis; assay type: ADME, cell-based; settings: mcf7, 0.75 h, dose 0.01-1 µM
[2] = molecular target: Sigma non-opioid intracellular receptor 1 (Homo sapiens, UniProt Q99720); assay: Binding affinity to sigma 1 receptor (unknown origin) assessed as inhibition constant
Chain of Sigma non-opioid intracellular receptor 1 (Homo sapiens, UniProt Q99720) (Q99720 whole entry): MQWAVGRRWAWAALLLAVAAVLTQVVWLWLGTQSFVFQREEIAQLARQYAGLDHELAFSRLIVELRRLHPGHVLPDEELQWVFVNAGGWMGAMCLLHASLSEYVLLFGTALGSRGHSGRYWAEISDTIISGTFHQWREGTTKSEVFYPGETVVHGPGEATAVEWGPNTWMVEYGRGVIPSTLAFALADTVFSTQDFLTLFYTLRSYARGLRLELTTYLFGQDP

[3] = molecular target: T1, Sigma intracellular receptor 2 (Homo sapiens, UniProt Q5BJF2); assay: Binding affinity to sigma 2 receptor (unknown origin) assessed as inhibition constant
T1 sequence (Q5BJF2 whole entry): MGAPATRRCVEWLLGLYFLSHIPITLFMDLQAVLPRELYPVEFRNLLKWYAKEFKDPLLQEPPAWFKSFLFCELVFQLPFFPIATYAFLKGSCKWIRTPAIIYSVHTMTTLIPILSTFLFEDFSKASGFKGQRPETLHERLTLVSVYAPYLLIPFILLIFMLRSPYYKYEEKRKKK

[4] = molecular target: T2, Sigma non-opioid intracellular receptor 1 (Cavia porcellus, UniProt Q60492); assay: Displacement of [3H](+)-pentazocine from sigma 1 receptor in guinea pig brain membranes assessed as inhibition constant by Wallac 1450 MicroBeta liquid scintillation counter; assay type: cell membranes, Membrane
T2 sequence (Q60492 whole entry): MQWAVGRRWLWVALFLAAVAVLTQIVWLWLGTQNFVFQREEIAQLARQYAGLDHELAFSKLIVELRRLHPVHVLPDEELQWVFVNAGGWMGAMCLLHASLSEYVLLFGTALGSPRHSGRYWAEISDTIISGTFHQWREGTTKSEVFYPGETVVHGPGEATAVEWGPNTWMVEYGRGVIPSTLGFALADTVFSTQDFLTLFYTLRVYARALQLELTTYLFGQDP

[5] = molecular target: T3, Sigma intracellular receptor 2 (Rattus norvegicus, UniProt Q5U3Y7); assay: Displacement of [3H]RHM-1 from sigma 2 receptor in Wistar Han rat liver membrane assessed as inhibition constant by competitive binding assay; assay type: cell membranes
T3 sequence (Q5U3Y7 whole entry): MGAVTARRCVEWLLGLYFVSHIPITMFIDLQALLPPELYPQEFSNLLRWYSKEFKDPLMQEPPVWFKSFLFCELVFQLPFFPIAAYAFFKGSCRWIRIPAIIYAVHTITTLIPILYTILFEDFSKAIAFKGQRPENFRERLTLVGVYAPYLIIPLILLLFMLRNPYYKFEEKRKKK

[6] = Drug accumulation in human MCF7 TMEM97 knock out cells assessed as increase in mean fluorescence intensity pretreated with (+)-pentazocine for 60 mins followed by compound addition incubated for 45 mins by flow cytometric analysis; assay type: ADME, cell-based; settings: mcf7, 0.75 h, dose 0.01-1 µM
[7] = Drug uptake in human MCF7 cells expressing sigma 1 receptor assessed as increase in fluorescence intensity in presence of (+)-pentazocine incubated at 1 to 10000 nM for 45 mins by flow cytometric analysis; assay type: ADME, cell-based; settings: mcf7, 0.75 h, 10 µM, dose 1-10000 nM
[8] = molecular target: T1, Sigma intracellular receptor 2; assay: Binding affinity to sigma 2 receptor in human MCF7 cells assessed as increase in fluorescent intensity pretreated with (+)-pentazocine for 60 mins followed by compound addition incubated for 45 mins by flow cytometric analysis; assay type: cell-based; settings: dose 0.01-1 µM
[9] = molecular target: T3, Sigma intracellular receptor 2; assay: Displacement of [3H]DTG from sigma 2 receptor in Wistar Han rat liver membrane assessed as inhibition constant by competitive binding assay; assay type: cell membranes
[10] = molecular target: T2, Sigma non-opioid intracellular receptor 1; assay: Displacement of [3H](+)-pentazocine from sigma 1 receptor in guinea pig brain membranes assessed as inhibition constant by competitive binding assay; assay type: cell membranes, Membrane

## C[N+]1=C(/C=C/C=C/C=C2/N(CCCCCC(=O)Nc3ccc4ccn(CCCCN5CCC6(CC5)OCc5ccccc56)c4c3)c3ccccc3C2(C)C)C(C)(C)c2ccccc21.[I-]
[1]
  Drug uptake: Dose-Dependent Effect

## CC1CCN(CCCCc2cccc3cc(OCCCCCCN4C(=O)c5ccc(N(C)C)cc5C4=O)ccc23)CC1
[2]
  pKi: 10.52
[3]
  pKi: 7.75

## COc1ccc(C)cc1NC(=O)OC1C[C@H]2CCC[C@@H](C1)N2CCCCCCCCCCS(=O)(=O)c1cccc2c(N(C)C)cccc12 (some centres not stated)
[4]
  pKi: 8.98
[5]
  pKi: 7.85

## C[N+]1=C(/C=C/C=C/C=C2\N(CCCCCC(=O)NCCCCCCn3cc(CCCCN4CCC5(CC4)OCc4ccccc45)c4ccccc43)c3ccccc3C2(C)C)C(C)(C)c2ccccc21.[I-]
[6]
  Drug uptake: Dose-Dependent Effect
[1]
  Drug uptake: Dose-Dependent Effect
[7]
  Drug uptake: Not Active
[8]
  Activity: Dose-Dependent Effect

## COc1cc2c(cc1OC)CN(CCCN1CCc3c(OCCCCCCN4C(=O)c5ccc(N(C)C)cc5C4=O)cccc3C1=O)CC2
[9]
  pKi: 7.99
[10]
  pKi: < 5.30

## CN(C)c1ccc2c(c1)C(=O)N(Oc1cccc3c1CCCC3CCCN1CCN(C3CCCCC3)CC1)C2=O (configuration not stated)
[3]
  pKi: 8.16
